For data set [1], the target named is T1, human cloned 5-HT6 receptors (Homo sapiens, UniProt P50406).
T1 construct: expressed in transfected cells; host or cells: Hela cells
The data set is described as follows: 5-HT6 binding affinity ([3H]-LSD displacement, membranes of Hela cells expressing human cloned 5-HT6 receptors). Particulars: [3H]-LSD 3.0 nM, Hela cell membranes; for inhibition at 1 µM / % inhibition at 1 μM concentration: 1 μM test compound; for inhibition at 1 µM: read-out: % inhibition at 1 μM concentration; for Ki: 120 min at room temperature. How it is done:
The affinity of test compounds for the serotonin 5-HT6 receptor is evaluated in the following manner. Cultured Hela cells expressing human cloned 5-HT6 receptors are harvested and centrifuged at low speed (1,000×g) for 10.0 min to remove the culture media. The harvested cells are suspended in half volume of fresh physiological phosphate buffered saline solution and recentrifuged at the same speed. This operation is repeated. The collected cells are then homogenized in ten volumes of 50 mM Tris.HCl (pH 7.4) and 0.5 mM EDTA. The homogenate is centrifuged at 40,000×g for 30.0 min and the precipitate is collected. The obtained pellet is resuspended in 10 volumes of Tris.HCl buffer and recentrifuged at the same speed. The final pellet is suspended in a small volume of Tris.HCl buffer and the tissue protein content is determined in aliquots of 10-25 μl volumes. Bovine Serum Albumin is used as the standard in the protein determination according to the method described in Lowry et al., J. Biol. Chem., 193:265 (1951). The volume of the suspended cell membranes is adjusted to give a tissue protein concentration of 1.0 mg/ml of suspension. The prepared membrane suspension (10 times concentrated) is aliquoted in 1.0 ml volumes and stored at −70° C. until used in subsequent binding experiments.
Binding experiments are performed in a 96 well microtiter plate format, in a total volume of 200 μl. […] The test compounds are added in 20.0 μl volume.
The reaction is allowed to proceed in the dark for 120 min at room temperature, at which time, the bound ligand-receptor complex is filtered off on a 96 well unifilter with a Packard Filtermate® 196Harvester. The bound complex caught on the filter disk is allowed to air dry and the radioactivity is measured in a Packard TopCount® equipped with six photomultiplier detectors, after the addition of 40.0 μl Microscint®-20 scintillant to each shallow well. The unifilter plate is heat-sealed and counted in a PackardTopCount® with a tritium efficiency of 31.0%.
Binding in the presence of varying concentrations of test compound is expressed as a percentage of specific binding in the absence of test compound. The results are plotted a log % bound versus log concentration of test compound. […] A linear regression line of data points is plotted, from which the IC50 value is determined and the Ki value is determined based upon the following equation: Ki=IC50/(1+L/KD) where L is the concentration of the radioactive ligand used and KD is the dissociation constant of the ligand for the receptor, both expressed in nM.

T1 sequence (P50406 whole entry): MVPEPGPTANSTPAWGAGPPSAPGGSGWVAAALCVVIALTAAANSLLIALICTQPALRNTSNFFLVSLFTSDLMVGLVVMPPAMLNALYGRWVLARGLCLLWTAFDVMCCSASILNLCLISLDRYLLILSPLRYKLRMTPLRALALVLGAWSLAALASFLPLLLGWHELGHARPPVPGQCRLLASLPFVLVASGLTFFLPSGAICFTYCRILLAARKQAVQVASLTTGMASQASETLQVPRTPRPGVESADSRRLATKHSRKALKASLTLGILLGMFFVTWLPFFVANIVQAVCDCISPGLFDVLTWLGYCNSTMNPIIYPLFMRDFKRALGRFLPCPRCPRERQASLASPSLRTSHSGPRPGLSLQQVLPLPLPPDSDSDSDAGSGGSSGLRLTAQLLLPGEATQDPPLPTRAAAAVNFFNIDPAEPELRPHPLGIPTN

The compound `O=S(=O)(c1ccc(Cl)s1)n1ccc2cc(OCCN3CCCCC3)ccc21` [Example 11, 1-[(5-chlorothien-2-yl)sulfonyl]-5-[2-(piperidin-1-yl)ethoxy]-1H-indole] registered a melting point of 222 to 224 °C. For the same compound, in data set [1], the inhibition at 1 µM is 51%. For `O=S(=O)(c1cc(Cl)c(Cl)s1)n1ccc2cc(OCCN3CCCCC3)ccc21` [Example 12, 1-[(4,5-dichlorothien-2-yl)sulfonyl]-5-[2-(piperidin-1-yl)ethoxy]-1H-indole], in that order: 222 to 224 °C and 65%. With `O=S(=O)(c1c(Cl)nc2sccn12)n1ccc2cc(OCCN3CCCCC3)ccc21` [Example 13, 1-[(6-chloroimidazo[2,1-b][1,3]thiazol-5-yl)sulfonyl]-5-[2-(piperidin-1-yl)ethoxy]-1H-indole], the melting point came to 60 °C. This compound yielded a Ki in data set [1] of 22 nM. With `Cc1c(S(=O)(=O)n2ccc3cc(OCCN4CCCCC4)ccc32)sc2ccc(Cl)cc12` [Example 14, 1-[(5-chloro-3-methyl-1-benzothien-2-yl)sulfonyl]-5-[2-(piperidin-1-yl)ethoxy]-1H-indole], the inhibition at 1 µM in data set [1] was 65%. Consider `Cc1c(S(=O)(=O)n2ccc3c(OCCN4CCCCC4)cccc32)sc2ccc(Cl)cc12` [Example 15, 1-[(5-chloro-3-methyl-1-benzothien-2-yl)sulfonyl]-4-[2-(piperidin-1-yl)ethoxy]-1H-indole], for which the melting point was 217 to 219 °C. For the same compound, the inhibition constant (Ki) in data set [1] amounted to 71 nM. As to `O=[N+]([O-])c1ccc(S(=O)(=O)n2ncc3c(OCCN4CCCCC4)cccc32)cc1` [Example 20, 1-[(4-nitrophenyl)sulfonyl]-4-[2-(l-piperidinyl)ethoxy]1H-indazole], the “% inhibition at 1 μM concentration” value in data set [1] was found to be 76% @ 1 μM*.

`O=S(=O)(c1c(Cl)nc2sccn12)n1ncc2c(OCCN3CCCCC3)cccc21` [Example 22, 1-[(6-chloroimidazo[2,1-b][1,3]thiazol-5-yl)sulfonyl]-4-[2-(piperidin-1-yl)ethoxy]-1H-indazole] returned a melting point of 88 to 90 °C. The compound also registered a Ki in data set [1] of 2 nM. As to `O=S(=O)(c1cc(Cl)c(Cl)s1)n1ncc2c(OCCN3CCCCC3)cccc21` [Example 23, 1-[(4,5-dichlorothien-2-yl)sulfonyl]-4-[2-(piperidin-1-yl)ethoxy]-1H-indazole], the melting point was in the range of 214 to 216 °C. The compound also yielded a Ki in data set [1] of 18 nM.

For `O=S(=O)(c1ccc(Cl)s1)n1ncc2c(OCCN3CCCCC3)cccc21` [Example 24, 1-[(5-chlorothien-2-yl)sulfonyl]-4-[2-(piperidin-1-yl)ethoxy]-1H-indazole], the melting point lay in the range of 187 to 189 °C. The same compound displayed an inhibition constant Ki in data set [1] of 12 nM. The compound `O=S(=O)(c1cccs1)n1ncc2c(OCCN3CCCCC3)cccc21` [Example 25, 4-[2-(piperidin-1-yl)ethoxy]-1-(thien-2-ylsulfonyl)-1H-indazole] returned a melting point of 172 to 175 °C. Further, the Ki in data set [1] amounted to 8 nM. Compound `Cc1c(S(=O)(=O)n2ncc3c(OCCN4CCCCC4)cccc32)sc2ccc(Cl)cc12` [Example 26, 1-[(5-chloro-3-methyl-1-benzothien-2-yl)sulfonyl]-4-[2-(piperidin-1-yl)ethoxy]-1H-indazole] showed a melting point of 216 to 218 °C. Besides, affinity in data set [1] was put at a Ki of 53 nM. On to “N,N-Bis(3-methoxybenzyl)-N-(2-{[1-(phenylsulfonyl)-1H-indol-4-yl]oxy}ethylamine [Example 7a]”, for which, in data set [1], the “% inhibition at 1 μM concentration” value amounted to 94% @ 1 μM*. Same read-out and setting: the figure for “N-(3-methoxybenzyl)-N-(2-{[1-(phenylsulfonyl)-1H-indol-4-yl]oxy}ethylamine hydrochloride [Example 7b]” is 95% @ 1 μM*.

By melting point is commonly meant the temperature, or range, at which the solid turns liquid. In general, Ki refers to a dissociation constant, usually derived from enzyme kinetics or from competition with a known ligand. Lower therefore signals tighter binding.

(Values after patent US7541358B2, “1-aryl-or 1-alkylsulfonylbenzazole derivatives as 5-hydroxytryptamine-6 ligands” (Wyeth, priority 2001, dated 2009).)
